Results from article PMC5808360, “Neutral Porphyrin Derivative Exerts Anticancer Activity by Targeting Cellular Topoisomerase I (Top1) and Promotes Apoptotic Cell Death without Stabilizing Top1-DNA Cleavage Complexes” (Journal of Medicinal Chemistry, 2017).

Assays:
[1] = molecular target: T1, cellular Top1 in MCF7 cells (Homo sapiens, UniProt P11387); assay: Western blot of Top1 in whole cell extracts of treated MCF7 cells; assay type: cell-based; conditions: 10 μM, indicated times
T1 construct: endogenous in cells; host or cells: MCF7 cells
T1 sequence (P11387 2-765 limits assumed): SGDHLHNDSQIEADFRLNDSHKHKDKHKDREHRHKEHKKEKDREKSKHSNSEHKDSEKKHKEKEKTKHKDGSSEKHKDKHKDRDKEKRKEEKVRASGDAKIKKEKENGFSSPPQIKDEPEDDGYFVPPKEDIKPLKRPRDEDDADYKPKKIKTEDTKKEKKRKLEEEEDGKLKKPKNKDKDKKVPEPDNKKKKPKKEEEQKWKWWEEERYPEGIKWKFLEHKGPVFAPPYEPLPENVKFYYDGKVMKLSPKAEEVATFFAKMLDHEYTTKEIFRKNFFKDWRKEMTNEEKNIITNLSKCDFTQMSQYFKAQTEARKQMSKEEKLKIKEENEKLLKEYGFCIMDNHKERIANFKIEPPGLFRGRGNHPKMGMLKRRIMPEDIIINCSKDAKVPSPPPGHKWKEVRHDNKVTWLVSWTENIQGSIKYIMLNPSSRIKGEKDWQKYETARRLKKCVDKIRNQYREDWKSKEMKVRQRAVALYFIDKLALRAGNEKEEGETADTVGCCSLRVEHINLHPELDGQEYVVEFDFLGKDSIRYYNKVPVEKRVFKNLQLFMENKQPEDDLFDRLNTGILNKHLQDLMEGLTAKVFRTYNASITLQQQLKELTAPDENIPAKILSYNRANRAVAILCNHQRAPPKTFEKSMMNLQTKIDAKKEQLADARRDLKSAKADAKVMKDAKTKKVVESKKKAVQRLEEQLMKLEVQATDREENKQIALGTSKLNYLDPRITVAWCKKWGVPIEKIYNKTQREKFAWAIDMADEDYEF
Procedure: Because compound 8 binds with free Top1 (Figure 3) and inhibits Top1cc formation in live cells (Figure 2E), we examined the impact of compound 8 on endogenous Top1. Cellular lysates were prepared from MCF7 cells treated with compound 8 for indicated times and were analyzed by Western blotting. […] Because proteasome has been implicated for Top1 degradation,[7],[9],[45] we used proteasome specific inhibitor (MG132) to investigate Top1 proteolysis in compound 8 treated cells.
Preparation of whole cell extracts from MCF7 cells and immunoblotting were carried out as described.[6],[40],[41] Immunoreactivity was detected using ECL chemiluminescence reaction (Amersham) under ChemiDoc MP system (Bio-Rad, USA).

[2] = molecular target: T2, EGFP-human Top1 in MCF7 cells (Homo sapiens, UniProt P11387); assay: FRAP of EGFP-Top1 in live MCF7 cells; assay type: cell-based; conditions: CPT 5 μM 10 min, then compound 20 μM 10 min
T2 construct: expressed in transfected cells; host or cells: MCF7 cells, transient transfection (Lipofectamine 2000)
T2 sequence (P11387 1-765): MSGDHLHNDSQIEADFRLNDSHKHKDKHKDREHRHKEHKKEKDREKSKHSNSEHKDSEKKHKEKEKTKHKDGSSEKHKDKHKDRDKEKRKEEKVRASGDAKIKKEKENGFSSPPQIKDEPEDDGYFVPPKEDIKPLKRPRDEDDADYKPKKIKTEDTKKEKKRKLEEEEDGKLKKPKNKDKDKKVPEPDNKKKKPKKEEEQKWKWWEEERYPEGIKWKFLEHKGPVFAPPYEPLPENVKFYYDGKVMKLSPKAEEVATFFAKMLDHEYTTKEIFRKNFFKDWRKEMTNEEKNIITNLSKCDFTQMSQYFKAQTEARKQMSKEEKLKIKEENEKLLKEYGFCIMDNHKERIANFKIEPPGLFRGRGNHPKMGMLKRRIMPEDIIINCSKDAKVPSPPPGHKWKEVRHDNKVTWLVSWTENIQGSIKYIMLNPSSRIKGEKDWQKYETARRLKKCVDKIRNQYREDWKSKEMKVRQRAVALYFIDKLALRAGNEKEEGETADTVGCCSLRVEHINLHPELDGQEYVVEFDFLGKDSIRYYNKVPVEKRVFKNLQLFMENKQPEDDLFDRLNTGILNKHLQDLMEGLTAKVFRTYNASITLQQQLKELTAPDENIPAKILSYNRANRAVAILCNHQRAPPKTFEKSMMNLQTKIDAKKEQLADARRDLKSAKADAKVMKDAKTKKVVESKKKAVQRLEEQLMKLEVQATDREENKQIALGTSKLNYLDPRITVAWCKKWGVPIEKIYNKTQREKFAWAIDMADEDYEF
Procedure: To obtain direct evidence for compound 8 mediated inhibition of Top1cc formation in live human carcinoma cells, we used MCF7 cells and transiently expressed EGFP-Top1. Live cells expressing ectopic Top1 were analyzed under laser confocal microscopy equipped with fluorescence recovery after photobleaching (FRAP) technology.[40]−[42]
Photobleaching experiments were performed as described formerly[40]−[42] using Andor Spining disk inverted confocal laser-scanning microscope equipped with a 60×/1.42 NA oil-immersion objective (Olympus) and with a CO2-controlled on-stage heated environmental chamber set to 37 °C. FRAP analyses were carried out with living MCF7 cells ectopically expressing EGFP-human Top1 grown on chamber cover glass (Genetix, India) and drug treated as indicated. For FRAP analysis, a subnuclear spot was bleached for 30 ms by solid-state laser line (488 nm for EGFP) adapted to the fluorescent protein of interest and FRAP curves were generated individually normalized to the prebleach signal as described previously.[42]

Top1 signal in Western blot [1]: time dependent depletion of Top1 signal
Top1 mobility restored in cells pretreated with CPT (FRAP) [2]: 12–15%
SMILES: CN(C)c1ccc(-c2c3nc(c(-c4ccc(N(C)C)cc4)c4ccc([nH]4)c(-c4ccc(C(=O)O)cc4)c4nc(c(-c5ccc(C(=O)O)cc5)c5ccc2[nH]5)C=C4)C=C3)cc1 [Compound 8, 5,10-Bis(4-carboxyphenyl)-15,20-bis(4-dimethylaminophenyl)porphyrin]
